Test results from patent publication US20260069523A1, “SKIN CARE COMPOSITION AND USE THEREOF” (NANJING NUTRABUILDING BIO-TECH CO., LTD., priority 2023, published 2026).

Key:
IL-6 = test: Anti-inflammatory test: IL-6 in UVB-stimulated keratinocytes; format: cell-based, human; details: UV-B 50 mJ/cm^2 irradiated keratinocytes, 24 h, supernatant, maximum non-cytotoxic dose (combinations: half dose each)
Experimental: (§1) Cell culture: HaCat, a normal human epidermal keratinocyte (NHEK) cell line, was purchased from Wuhan Saios Biotechnology Co., Ltd. The cells were stored in a humid environment (95% air and 5% carbon dioxide at 37° C.) and cultured in DMEM supplemented with 10% heat inactivated FBS, 2 mM glutamine and 1% penicillin/streptomycin. The culture was harvested and the cell morphology was examined by phase contrast microscope. Cell suspension was counted with a hemocytometer (Marienfeld, Germany) to monitor the number of cells.
(§2) UVB stimulation: Keratinocytes were inoculated into a 12-well plate (50,000 cells/mL) and cultured to a confluency of ˜80%. The cells were washed once with phosphate buffered saline (PBS) at room temperature, 0.5 mL PBS was added to the cells, and then irradiated with ultraviolet rays. The cells were exposed to 50 mJ/cm^2 UV-B (Philips, 311 nm) for 2 minutes. […]
(§3) Detection of inflammatory factors: the standard curve of each cytokine (TNF-α, IL-8, IL-6) were generated by using the reference cytokine samples provided by the kit. […] The absorbance (OD value) was measured by microplate reader at the wavelength of 450 nm, and the concentration was calculated according to the standard curve.

IL-8 = test: Anti-inflammatory test: IL-8 in UVB-stimulated keratinocytes; format: cell-based, human; details: UV-B 50 mJ/cm^2 irradiated keratinocytes, 24 h, supernatant, maximum non-cytotoxic dose (combinations: half dose each)
Experimental: as §1, §2, §3

TNF-α = test: Anti-inflammatory test: TNF-α in UVB-stimulated keratinocytes; format: cell-based, human; details: UV-B 50 mJ/cm^2 irradiated keratinocytes, 24 h, supernatant, maximum non-cytotoxic dose (combinations: half dose each)
Experimental: as §1, §2, §3

tyrosinase = test: Whitening test: inhibition of tyrosinase; details: 1 mg/mL sample solutions (combinations mixed 1:1 or 1:1:1), tyrosine substrate, 30° C., absorbance 475 nm

SMILES | content of IL-6 (IL-6) | content of IL-8 (IL-8) | content of TNF-α (TNF-α) | inhibition rate on tyrosinase (tyrosinase)
COc1cc(CCC(=O)CC(=O)CCc2ccc(O)c(OC)c2)ccc1O [THC, tetrahydrocurcumin] | 27 pg/mL | 25 pg/mL | about 90 pg/ml | 
C[N+](C)(C)[C@@H](Cc1c[nH]c(=S)[nH]1)C(=O)[O-] [EGT, ergothioneine] | 28 pg/mL | 23 pg/mL | about 95 pg/ml | 68%
